Test results published in US20180200339A1, “METHODS OF REDUCING CORNEAL ENDOTHELIAL CELL LOSS” (Massachusetts Eye and Ear Infirmary, priority 2013, published 2018).

Key:
cornea = experiment: VIP treatment of mice after trigeminal axotomy: corneal thickness by AS-OCT; type: in vivo, BALB/c mice; settings: daily intraperitoneal VIP 5 nM in 10 μL, day 14, AS-OCT, versus saline
Description: Six- to eight-week old male BALB/c mice (Charles River, Wilmington, Mass.) were used in these experiments. Trigeminal axotomy was performed by first anesthetizing the animals with a ketamine (100 mg/mL)/xylazine (20 mg/mL)/acepromazine (15 mg/mL) mixture. After anesthetization, small incision lateral canthotomy was performed, two tractional sutures were placed on the lid skin, and the conjunctival fornix were incised circumferentially around 90 degrees. The eye globe was rotated nasally by gently pushing the nasal fornix with blunt forceps, exposing the trigeminal nerve and minimizing intraoperative bleeding through mild elevation of the intraorbital pressure. The ophthalmic branches of the trigeminal nerve were cut at the posterior sclera close to the optic nerve with sharp forceps. After cutting the branches of the trigeminal nerve, the skin was sutured using 8-0 nylon. Tarsorrhaphy was performed to reduce the risk of infection and exposure keratitis in the mice. Finally, an antibiotic ointment (bacitracin-neomycin-polymyxin mixture) was applied to the sutured area and the treated eye in the mice. […]
Normal and post-operative cornea were examined using anterior segment optical coherence tomography (AS-OCT, RTVue, Optoview, Inc., Fremont, Calif.) at 7, 14 and 21 days after the surgical procedure. […] The corneal thickness was measured using built-in software. […]

[1] = system: corneal endothelial cells; experiment: VIP treatment of mice after trigeminal axotomy: corneal endothelial cell density (immunofluorescence, ZO-1 staining); type: in vivo, BALB/c mice; settings: daily intraperitoneal VIP 5 nM in 10 μL, day 14, versus saline
Description: Six- to eight-week old male BALB/c mice (Charles River, Wilmington, Mass.) were used in these experiments. Trigeminal axotomy was performed by first anesthetizing the animals with a ketamine (100 mg/mL)/xylazine (20 mg/mL)/acepromazine (15 mg/mL) mixture. After anesthetization, small incision lateral canthotomy was performed, two tractional sutures were placed on the lid skin, and the conjunctival fornix were incised circumferentially around 90 degrees. The eye globe was rotated nasally by gently pushing the nasal fornix with blunt forceps, exposing the trigeminal nerve and minimizing intraoperative bleeding through mild elevation of the intraorbital pressure. The ophthalmic branches of the trigeminal nerve were cut at the posterior sclera close to the optic nerve with sharp forceps. After cutting the branches of the trigeminal nerve, the skin was sutured using 8-0 nylon. Tarsorrhaphy was performed to reduce the risk of infection and exposure keratitis in the mice. Finally, an antibiotic ointment (bacitracin-neomycin-polymyxin mixture) was applied to the sutured area and the treated eye in the mice. Fluxinin (0.25 mg /kg body weight) was administered every 12 hours for 24 hours by subcutaneous injection. […]
Corneal endothelial cells were counted using cell counter plug-ins with ImageJ software (NIH, Bethesda, Md.). […] The results are expressed as mean±SEM, and considered significant if p<0.05.

vasoactive intestinal peptide [VIP]
corneal thickness (cornea): remained within the normal ranged
corneal endothelial cell density [1]: didn't decrease
